Patent US6068687A, “Azo dyes and their preparation and use” (Ilford Imaging Switzerland GmbH, priority 1997, dated 2000)

What was measured:
[1] = Jetting stability of inks (IRIS ink jet printer nozzle); design: key: ⊕: Unchanged; .diamond.: Slightly changed; .O slashed.: Heavily changed; settings: 100 hours continual jetting, exit angle and nozzle condition
Protocol: (§1) 100 g of each ink were prepared by heating the necessary components from Table 3 (all amounts are indicated in grams) together with water at a temperature of 50° C. under stirring for one hour. The resulting solution was cooled down to 20° C., its pH value was adjusted to 7.5 and the solution was passed through a Millipore® filter of 0.5 μm pore diameter.
The inks were expelled continually during 100 hours from a nozzle of the IRIS ink jet printer. Afterwards the change of the exit angle of the ink stream and the condition of the nozzle were evaluated in the following way: […]

[2] = Storage stability of inks (precipitation); format: physicochemical; design: key: ⊕: No precipitation; .diamond.: Slight precipitation; .O slashed.: Heavy precipitation; settings: ink, 0° C, 30 days, hermetically sealed bottles
Protocol: as §1
The inks were stored at a temperature of 0° C. for 30 days in hermetically sealed bottles. The quantity of precipitate eventually formed was evaluated in the following way: […]

[3] = Dye solubility in deionised water (spectroscopic determination in filtered solution); format: physicochemical; settings: for Solubility compared with previously known dye (in words): comparison with known dye, Table 4; for Solubility: deionised water, stirred 1 hour at 50° C, cooled to 20° C, filtered
Protocol: An excess of dye was dispersed in deionised water and this dispersion was stirred for 1 hour at 50° C. Then the mixture was cooled down to 20° C., centrifuged and filtered through a Millipore® filter of 0.5 μm pore diameter. Dye solubility was determined spectroscopically in the filtered solution.

[4] = Hydrolysis stability (pH change of 5% aqueous dye solution on storage); format: physicochemical; settings: for pH change during storage: 5% by weight aqueous solution, initial pH 7.0, 60° C, 30 days; for Stability against hydrolysis compared with known dye (2) (in words): comparison with dye (2), Table 4
Protocol: An aqueous solution (5% by weight) was prepared and the pH value of this solution was adjusted to 7.0. The solution was filtered through a Millipore® filter of 0.5 μm pore diameter. The filtered solution was then heated to a temperature of 60° C. for 30 days, cooled down afterwards to a temperature of 20° C. and the pH value was measured again. The difference of the pH values before and after storage is an indicator of hydrolysis stability.

| (D) Jetting stability [1] | (C) Storage stability [2] | Solubility [3] [g per 100 ml] | pH change during storage [4] | Structure (SMILES) | Solubility compared with previously known dye (in words) [3] | Stability against hydrolysis compared with known dye (2) (in words) [4] |
| --- | --- | --- | --- | --- | --- | --- |
| ⊕ | ⊕ | 34 | 0 | COc1cc(N=Nc2cc(S(=O)(=O)O)c3cccc(S(=O)(=O)O)c3c2)c(C)cc1Nc1nc(SCCCS(=O)(=O)O)nc(N(C)CCO)n1 [(120)] | considerably higher solubility than the previously known dye (2) | much better stability against hydrolysis than the known dye (2) |
| ⊕ | ⊕ | 38 | -0.1 | Nc1ccc2cc(S(=O)(=O)O)cc(O)c2c1N=Nc1ccc(Nc2nc(SCCCS(=O)(=O)O)nc(N(CCO)CCO)n2)cc1S(=O)(=O)O [(121)] | considerably higher solubility than the previously known dye (2) | much better stability against hydrolysis than the known dye (2) |

More lines, now with the values behind:

| Structure (SMILES) | (D) Jetting stability [1] | (C) Storage stability [2] | Solubility [3] [g per 100 ml] | pH change during storage [4] | Solubility compared with previously known dye (in words) [3] | Stability against hydrolysis compared with known dye (2) (in words) [4] |
| --- | --- | --- | --- | --- | --- | --- |
| CCN(c1ccccc1)c1nc(Nc2cc(S(=O)(=O)O)cc3cc(S(=O)(=O)O)c(N=Nc4ccccc4S(=O)(=O)O)c(O)c23)nc(SCCCS(=O)(=O)O)n1 [(117)] | ⊕ | ⊕ |  |  |  |  |
| CCOc1nc(Nc2cc(C)c(N=Nc3cc(S(=O)(=O)O)c4cccc(S(=O)(=O)O)c4c3)cc2OC)nc(SCCCS(=O)(=O)O)n1 [(100)] | ⊕ | ⊕ | 32 | 0 | considerably higher solubility than the previously known dye (2) | much better stability against hydrolysis than the known dye (2) |
| Nc1ccc2cc(S(=O)(=O)O)cc(O)c2c1N=Nc1ccc(Nc2nc(NCCO)nc(Nc3cccc(S(=O)(=O)O)c3)n2)cc1S(=O)(=O)O [(1)] | .diamond. | .diamond. | 12 | -0.2 |  |  |
| COc1cc(N=Nc2cc(S(=O)(=O)O)c3cccc(S(=O)(=O)O)c3c2)c(C)cc1Nc1nc(SCCCS(=O)(=O)O)nc(SCCCS(=O)(=O)O)n1 [(2)] | ⊕ | ⊕ | 34 | -0.5 |  |  |
| CCOc1nc(Nc2ccc(N=Nc3c(N)ccc4cc(S(=O)(=O)O)cc(O)c34)c(S(=O)(=O)O)c2)nc(SCCCS(=O)(=O)O)n1 [(113)] | ⊕ | ⊕ | 32 | -0.1 | considerably higher solubility than the previously known dye (2) | much better stability against hydrolysis than the known dye (2) |
